pEC50, pIC50: −log10 of the molar value. In brackets after ≈: the same amount, converted by molar mass.
Key:
[1] = Resistance fold, ratio of EC50 for HIV1 harboring reverse transcriptase Y181C mutant […] to EC50 for wild type HIV1 […]; type: functional
[2] = Resistance fold, ratio of EC50 for HIV1 harboring reverse transcriptase K103N/Y181C double mutant […] to EC50 for wild type HIV1 […]; type: functional
[3] = test system: Human immunodeficiency virus 1; assay: Antiviral activity against HIV1 harboring reverse transcriptase K103N/Y181C double mutant infected in human MT4 cells assessed as protection against virus-induced cytopathic effect incubated for 5 days by MTT assay; type: functional, organism-based; conditions: Human immunodeficiency virus 1, MT4, 120 h
[4] = test system: Human immunodeficiency virus 1; assay: Antiviral activity against HIV1 harboring reverse transcriptase Y181C mutant infected in human MT4 cells assessed as protection against virus-induced cytopathic effect incubated for 5 days by MTT assay; type: functional, organism-based; conditions: Human immunodeficiency virus 1, MT4, 120 h
[5] = target: Human immunodeficiency virus type 1 reverse transcriptase (Human immunodeficiency virus 1, UniProt Q72547, K103N/Y181C); assay: Inhibition of HIV1 reverse transcriptase K103N/Y181C double mutant using oligo(dT)16 as primer measured after 40 mins by picogreen-dye based spectrofluorimetric analysis
[6] = (§1) Cytotoxicity against human MT4 cells assessed as reduction in cell viability incubated for 5 days by MTT assay; type: cell-based; conditions: human, MT4 cells; time 5 day
[7] = test system: Human immunodeficiency virus 1; assay: Antiviral activity against HIV1 harboring reverse transcriptase F227L/V106A mutant infected in human MT4 cells assessed as protection against virus-induced cytopathic effect incubated for 5 days by MTT assay; type: functional, organism-based; conditions: Human immunodeficiency virus 1, MT4, 120 h
[8] = target: Human immunodeficiency virus type 1 reverse transcriptase (Human immunodeficiency virus 1, UniProt Q72547, L100I); assay: Inhibition of HIV1 reverse transcriptase L100I mutant using oligo(dT)16 as primer measured after 40 mins by picogreen-dye based spectrofluorimetric analysis
[9] = test system: Human immunodeficiency virus 1; assay: Antiviral activity against HIV1 harboring reverse transcriptase E138K mutant infected in human MT4 cells assessed as protection against virus-induced cytopathic effect incubated for 5 days by MTT assay; type: functional, organism-based; conditions: Human immunodeficiency virus 1, MT4, 120 h
[10] = target: Human immunodeficiency virus type 1 reverse transcriptase (Human immunodeficiency virus 1, UniProt Q72547, E138K); assay: Inhibition of HIV1 reverse transcriptase E138K mutant using oligo(dT)16 as primer measured after 40 mins by picogreen-dye based spectrofluorimetric analysis
[11] = Resistance fold, ratio of EC50 for HIV1 harboring reverse transcriptase Y188L mutant […] to EC50 for wild type HIV1 […]; type: functional
[12] = Water solubility of compound at pH 2 at 0.1 to 10 mg by HPLC-UV analysis; type: physicochemical; conditions: dose 0.1-10 mg
[13] = target: Human immunodeficiency virus type 1 reverse transcriptase (Human immunodeficiency virus 1, UniProt Q72547, F227L/V106A); assay: Inhibition of HIV1 reverse transcriptase F227L/V106A double mutant using oligo(dT)16 as primer measured after 40 mins by picogreen-dye based spectrofluorimetric analysis
[14] = test system: Human immunodeficiency virus 1; assay: Antiviral activity against HIV1 harboring reverse transcriptase Y188L mutant infected in human MT4 cells assessed as protection against virus-induced cytopathic effect incubated for 5 days by MTT assay; type: functional, organism-based; conditions: Human immunodeficiency virus 1, MT4, 120 h
[15] = target: Human immunodeficiency virus type 1 reverse transcriptase (Human immunodeficiency virus 1, UniProt Q72547, Y181C); assay: Inhibition of HIV1 reverse transcriptase Y181C mutant using oligo(dT)16 as primer measured after 40 mins by picogreen-dye based spectrofluorimetric analysis
[16] = Resistance fold, ratio of EC50 for HIV1 harboring reverse transcriptase F227L/V106A double mutant […] to EC50 for wild type HIV1 […]; type: functional
[17] = Resistance fold, ratio of EC50 for HIV1 harboring reverse transcriptase L100I mutant […] to EC50 for wild type HIV1 […]; type: functional
[18] = target: Human immunodeficiency virus type 1 reverse transcriptase (Human immunodeficiency virus 1, UniProt Q72547, Y188L); assay: Inhibition of HIV1 reverse transcriptase Y188L mutant using oligo(dT)16 as primer measured after 40 mins by picogreen-dye based spectrofluorimetric analysis
[19] = test system: Human immunodeficiency virus 2; assay: Anti-HIV activity against HIV2 ROD infected in human MT4 cells assessed as reduction in virus-induced cytopathic effect incubated for 5 days by MTT assay; type: functional, organism-based; conditions: Human immunodeficiency virus 2, ROD, MT4, 120 h
[20] = test system: Human immunodeficiency virus 1; assay: Antiviral activity against HIV1 harboring reverse transcriptase K103N mutant infected in human MT4 cells assessed as protection against virus-induced cytopathic effect incubated for 5 days by MTT assay; type: functional, organism-based; conditions: Human immunodeficiency virus 1, MT4, 120 h
[21] = Water solubility of compound at pH 7 at 0.1 to 10 mg by HPLC-UV analysis; type: physicochemical; conditions: dose 0.1-10 mg
[22] = Resistance fold, ratio of EC50 for HIV1 harboring reverse transcriptase E138K mutant […] to EC50 for wild type HIV1 […]; type: functional
[23] = target: Human immunodeficiency virus type 1 reverse transcriptase (Human immunodeficiency virus 1, UniProt Q72547, K103N); assay: Inhibition of HIV1 reverse transcriptase K103N mutant using oligo(dT)16 as primer measured after 40 mins by picogreen-dye based spectrofluorimetric analysis
[24] = Selectivity index, ratio of CC50 for cytotoxicity against human MT4 cells to EC50 of Anti-HIV activity against HIV-1 IIIB infected in human MT4; type: toxicity, cell-based; conditions: read-out: Selectivity Index
[25] = test system: Human immunodeficiency virus 1; assay: Anti-HIV activity against HIV-1 IIIB infected in human MT4 cells assessed as reduction in virus-induced cytopathic effect incubated for 5 days by MTT assay; type: functional, organism-based; conditions: Human immunodeficiency virus 1, IIIB, MT4, 120 h
[26] = Resistance fold, ratio of EC50 for HIV1 harboring reverse transcriptase K103N mutant […] to EC50 for wild type HIV1 […]; type: functional
[27] = Water solubility of compound at pH 7.4 at 0.1 to 10 mg by HPLC-UV analysis; type: physicochemical; conditions: dose 0.1-10 mg
[28] = target: Human immunodeficiency virus type 1 reverse transcriptase (Human immunodeficiency virus 1, UniProt Q72547); assay: Inhibition of wild type HIV1 reverse transcriptase using oligo(dT)16 as primer measured after 40 mins by picogreen-dye based spectrofluorimetric analysis
[29] = test system: Human immunodeficiency virus 1; assay: Antiviral activity against HIV1 harboring reverse transcriptase L100I mutant infected in human MT4 cells assessed as protection against virus-induced cytopathic effect incubated for 5 days by MTT assay; type: functional, organism-based; conditions: Human immunodeficiency virus 1, MT4, 120 h
[30] = test system: MT4; assay: as §1; type: cell-based; conditions: Homo sapiens, MT4, 120 h

Row | SMILES | Ratio EC50 [1] | Ratio EC50 [2] | pEC50 [3] | pEC50 [4] | pIC50 [5] | CC50 at 120 h [6] | pEC50 [7] | pEC50 [9] | Ratio EC50 [11] | pEC50 [14] | Ratio EC50 [16] | Ratio EC50 [17] | pEC50 [19] | pEC50 [20] | Ratio EC50 [22] | selectivity ratio [24] | pEC50 [25] | Ratio EC50 [26] | pIC50 [28] | pEC50 [29] | further results
1 | CCNc1cc(Oc2c(OC)cc3cc(C#N)ccc3c2OC)nc(Nc2ccc(C#N)cc2)n1 | 7 | 46 | 6.38 | 7.21 | 6.37 | > 125 µM | 5.38 | 7.80 | 64 | 6.24 | 463 | 14 | < 3.00 | 8.06 | 2 | > 30500 | 8.04 | 1 | 7.22 | 6.89 | pIC50 [8]: 5.88; pIC50 [10]: 7.05; solubility [12]: 1 µg/mL (≈ 2.14 µM); pIC50 [13]: 5.94; pIC50 [15]: 6.80; pIC50 [18]: 5.63; solubility [21]: < 1 µg/mL; pIC50 [23]: 6.92; solubility [27]: 9 µg/mL (≈ 19.3 µM)
2 | COc1cc2cc(C#N)ccc2c(OC)c1Oc1cc(N)nc(Nc2ccc(C#N)cc2)n1 | 3 | 6 | 7.52 | 7.80 | 7.22 | 19 µM | 6.48 | 7.85 | 33 | 6.75 | 61 | 7 | 5.14 | 8.28 | 3 | 3500 | 8.27 | 1 | 7.70 | 7.42 | pIC50 [8]: 7.15; pIC50 [10]: 7.70; solubility [12]: < 1 µg/mL; pIC50 [13]: 6.92; pIC50 [15]: 7.40; pIC50 [18]: 6.82; solubility [21]: < 1 µg/mL; pIC50 [23]: 7.40; solubility [27]: 1 µg/mL (≈ 2.28 µM)
3 | COc1cc2cc(C#N)ccc2c(OC)c1Oc1cc(NC2CCCC2)nc(Nc2ccc(C#N)cc2)n1 | 11 | 138 | 5.18 | 6.28 | – | > 125 µM | 3.88 | 6.64 | 158 | 5.12 | 2742 | 77 | < 3.00 | 7.26 | 5 | > 5170 | – | 1 | 6.68 | – | pIC50 [25]: 7.32; pIC50 [29]: 5.43
4 | CCC(C)CNc1cc(Oc2c(OC)cc3cc(C#N)ccc3c2OC)nc(Nc2ccc(C#N)cc2)n1 (configuration not stated) | 10 | 216 | 4.83 | 6.17 | – | – | < 3.00 | 6.55 | 89 | 5.21 | >14450 | 36 | < 3.00 | 7.22 | 4 | > 3550 | 7.16 | 1 | 6.57 | 5.61 | pIC50 [30]: < 3.90
5 | COc1cc2cc(C#N)ccc2c(OC)c1Oc1cc(NCC2CCOC2)nc(Nc2ccc(C#N)cc2)n1 (configuration not stated) | 9 | 36 | 6.17 | 6.77 | – | > 125 µM | 5.11 | 7.33 | 35 | 6.17 | 410 | 22 | < 3.00 | 7.80 | 2 | > 12500 | 7.72 | 1 | 7.22 | 6.43 | –
6 | COc1cc2cc(C#N)ccc2c(OC)c1Oc1cc(N2CCC(O)C2)nc(Nc2ccc(C#N)cc2)n1 (configuration not stated) | 4 | 76 | 6.09 | 7.32 | 6.35 | > 125 µM | 5.88 | 7.35 | 38 | 6.40 | 124 | 11 | 5.04 | 7.72 | 4 | 22800 | 7.96 | 2 | 7.00 | 6.92 | pIC50 [8]: 6.31; pIC50 [10]: 6.82; solubility [12]: 1 µg/mL (≈ 1.97 µM); pIC50 [13]: 6.06; pIC50 [15]: 6.74; pIC50 [18]: 5.97; solubility [21]: < 1 µg/mL; pIC50 [23]: 6.62; solubility [27]: 2 µg/mL (≈ 3.93 µM)
7 | COc1cc2cc(C#N)ccc2c(OC)c1Oc1cc(NCCCCO)nc(Nc2ccc(C#N)cc2)n1 | 11 | 31 | 6.26 | 6.72 | – | 39.1 µM | 5.55 | 7.33 | 41 | 6.13 | 158 | 17 | 5.31 | 7.70 | 3 | 2190 | 7.74 | 1 | 7.10 | 6.52 | –
8 | COc1cc2cc(C#N)ccc2c(OC)c1Oc1cc(NCC(O)CO)nc(Nc2ccc(C#N)cc2)n1 (configuration not stated) | 7 | 9 | 6.03 | 6.14 | – | 29.5 µM | 5.51 | 6.55 | 13 | 5.90 | 31 | 17 | < 3.00 | 7.03 | 3 | 293 | 7.00 | 1 | 7.10 | 5.98 | –

Reference: ChEMBL document CHEMBL5036347, “Design of the naphthyl-diarylpyrimidines as potent non-nucleoside reverse transcriptase inhibitors (NNRTIs) via structure-based extension into the entrance channel” (Eur J Med Chem, 2021)
